The assay has as its system lamin b1 (LMNB1) gene expression. The assay is described as follows: lamin B1 (LMNB1) gene expression assay (qPCR) in skin equivalents, with TNF-α to simulate photoaged skin. Format: cell-based, human. The method, then: The effects of IR light, hexyl resorcinol (HR), and combinations thereof on lamin B1 gene expression in the presence of TNF-α was tested as follows. TNF-α is known to play a primary role in the inflammation process upon ultraviolet (UV) irradiation and is stimulated by UVB.
Three human full-thickness skin equivalents (MatTek, Ashland, Mass.) were used for each treatment. The skin equivalents were treated with one of the following: (i) 100 ng/ml TNF-α in a medium (1× phenol-red free Hank's buffered saline solution (HBSS), (ii) a placebo formulation, (iii) a hexyl resorcinol formulation containing 0.5 weight percent hexyl resorcinol (HR) in the placebo formulation, (iv) infrared (IR) light (wavelength 830 nm) at 0.5 mW/cm^2 for 10 min (i.e. fluence at 0.3 J/cm^2), or (iv) combinations of these. TNF-α was used to simulate photoaged skin.
The placebo formulation contained the ingredients in Table 1. The hexyl resorcinol formulation contained the same ingredients plus 0.5 wt % hexyl resorcinol.
For the combination treatments, the formulations were first topically applied to the skin equivalents and left to stand for two hours. Next, the skin equivalents were irradiated with the IR light. Then the skin equivalents were incubated with or without 100 ng/ml TNF-α in the phenol-red-free medium for 24 hours.
Afterwards, the skin equivalents were collected in RNAlater solution (ThermoFisher Scientific, Bridgewater, N.J., USA) for RNA purification. The total RNAs were purified using a Qiagen RNeasy kit (Valencia, Calif., USA) following the manufacturer's instructions. RNA concentration was assessed using a Nanodrop 2000 spectrophotometer (ThermoFisher Scientific, Bridgewater, N.J., USA). Complementary DNA (cDNA) was performed using a High Capacity cDNA kit (ThermoFisher Scientific, Bridgewater, N.J., USA). TaqMan® gene expression assays for lamin b1 (LMNB1) and TATA-Box Binding Protein (TBP) and TaqMan® gene expression master mix from ThermoFisher Scientific (Bridgewater, N.J., USA) were used. Realtime polymerase chain reactions (qPCRs) of each treatment were performed using 5 ul of the 15 ul mixture of cDNAs pooled from three equivalent tissue replicates (i.e. mixing 5 ul of cDNA from each equivalent replicate). qPCRs were performed using a QuantStudio™ 7 Flex System (ThermoFisher Scientific, Bridgewater, N.J., USA). The RQ (relative quantitation) was calculated using the formula 2^-ΔΔCt.
The effects of red light (wavelength 640 nm, 0.3 J/cm^2) and HR on lamin B1 gene expression in the presence of TNF-α was tested using the same method as Example 1.

Where [1] appears, read: Example 2, treatment alone (no light, no other treatment).
The mark [2] stands for this setting: treatment alone (no light, no other treatment), human full-thickness skin equivalents.

On to `CCCCCCc1ccc(O)cc1O` [hexyl resorcinol, 4-hexylresorcinol], for which, where the note is “combination with red light”, the “change in lamin B1 gene expression” value was “no substantial change”.

Consider TNF-α, for which, under setting [1], the “Induced LMNB1 (RQ)” value was 1.55 RQ and the “Induced LMNB1 vs Untreated Control (RQ fold changes)” value is recorded as 0.55 RQ fold changes. Further, under setting [2], the “Difference of Induced LMNB1 vs Untreated Control (RQ fold changes)” value was 0.55 RQ fold changes and the “LMNB1 Induction (RQ)” value is recorded as 1.55 RQ.
